# In patent US4518790A, “15-Deoxy-16-hydroxy-16-vinyl and cyclopropyl substituted prostanoic acids and congeners” (American Cyanamid Company, priority 1980, dated 1985):
# Columns and labels:
# Format in all cases: in vivo, guinea pigs
# [1] = test system: bronchospasms elicited by histamine; experiment: Bronchodilator activity (Konzett assay) against bronchospasm elicited by intravenous histamine; settings: Cavia porcellus, guinea pig, three logarithmic cumulative doses, spasmogen histamine i.v., read-out: Bronchodilator Activity (Konzett Assays) ED50, Spasmogenic Agent histamine
# Protocol: (§1) The compounds of this invention are useful as bronchodilators for the treatment of asthma and chronic bronchitis. Bronchodilator activity is determined in guinea pigs against bronchospasms elicited by intravenous injections of 5-hydroxytryptamine, histamine or acetylcholine by the Konzett procedure. [See J. Lulling, P. Lievens, F. El Sayed and J. Prignot, Arzneimittel-Forschung, 18, 955 (1968).]
# (§2) In Table 16 which follows bronchodilator activity for representative compounds of this invention against one or more of three spasmogenic agents is expressed as an ED50 determined from the results obtained with three logarithmic cummulative intravenous doses. In this assay, these compounds of this invention provide an effect of longer duration than does natural 1-PGE1 or 1-PGE2.
# [2] = test system: bronchospasms elicited by 5-hydroxytryptamine; experiment: Bronchodilator activity (Konzett assay) against bronchospasm elicited by intravenous 5-hydroxytryptamine; settings: Cavia porcellus, guinea pig, three logarithmic cumulative doses, spasmogen 5-hydroxytryptamine i.v., read-out: Bronchodilator Activity (Konzett Assays) ED50, Spasmogenic Agent 5-hydroxytryptamine
# Protocol: as §1, §2
# [3] = test system: bronchospasms elicited by acetylcholine; experiment: Bronchodilator activity (Konzett assay) against bronchospasm elicited by intravenous acetylcholine; settings: Cavia porcellus, guinea pig, three logarithmic cumulative doses, spasmogen acetylcholine i.v., read-out: Bronchodilator Activity (Konzett Assays) ED50, Spasmogenic Agent Acetylcholine
# Protocol: as §1, §2
smiles,measurement,setting,value
"C=CC(O)(C/C=C/[C@H]1[C@H](O)CC(=O)[C@@H]1C/C=C\CCCC(=O)O)CCCCC (relative stereo) [9-oxo-11α,16-dihydroxy-16-vinyl-20-methyl-5-cis,13-trans-prostadienoic acid]",ED50,[1],2.3 µg/kg
same,ED50,[2],2.06 µg/kg
same,ED50,[3],4.3 µg/kg
"C=CC(O)(C/C=C/[C@H]1[C@H](O)CC(=O)[C@@H]1C/C=C\CCCC(=O)OC)CCCC (relative stereo) [methyl-9-oxo-11α, 16-dihydroxy-16-vinyl-5-cis, 13-trans prostadienoate]",ED50,[1],0.212 µg/kg
same,ED50,[2],0.354 µg/kg
same,ED50,[3],0.302 µg/kg
"C=CC(O)(C/C=C/[C@H]1[C@H](O)CC(=O)[C@@H]1C/C=C\CCCC(=O)O)CCCC (relative stereo) [9-oxo-11α,16-dihydroxy-16-vinyl-5-cis,13-trans-prostadienoic acid]",ED50,[1],0.162 µg/kg
same,ED50,[2],0.252 µg/kg
same,ED50,[3],0.78 µg/kg
"C=CC(O)(C/C=C/[C@H]1[C@H](O)CC(=O)[C@@H]1CCCCCCC(=O)O)CCCC (relative stereo) [9-Oxo-11α,16-dihydroxy-16-vinyl-13-trans-prostenoic Acid]",ED50,[1],1.11 µg/kg
same,ED50,[2],1.86 µg/kg
same,ED50,[3],760 µg/kg
